Source: ChEMBL document CHEMBL1201861, “Genomics of Drug Sensitity in Cancer screening data, Wellcome Trust Sanger Institute”

system: COR-L88; test: cells; type: functional, cell-based, Homo sapiens; conditions: Homo sapiens, COR-L88;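 also: growth inhibition of COR-L88 cells, read out with a cell viability assay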
Description: SANGER: Inhibition of human COR-L88 cell growth in a cell viability assay.

Compound | IC50 [µM]
COc1cc(N2CCC(N3CCN(C)CC3)CC2)ccc1Nc1ncc(Cl)c(Nc2ccccc2S(=O)(=O)C(C)C)n1 [TAE-684] | > 2

system: DJM-1; test: cells; type: functional, cell-based, Homo sapiens; conditions: Homo sapiens, DJM-1;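 also: growth inhibition of human DJM-1 cells, read out by a cell viability assay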
Description: SANGER: Inhibition of human DJM-1 cell growth in a cell viability assay.

Compound | IC50 [µM]
COc1cc(N2CCC(N3CCN(C)CC3)CC2)ccc1Nc1ncc(Cl)c(Nc2ccccc2S(=O)(=O)C(C)C)n1 [TAE-684] | > 2

system: DMS-114; test: cells; type: functional, cell-based, Homo sapiens; conditions: Homo sapiens, DMS-114

Compound | IC50 [µM]
COc1cc(N2CCC(N3CCN(C)CC3)CC2)ccc1Nc1ncc(Cl)c(Nc2ccccc2S(=O)(=O)C(C)C)n1 [TAE-684] | > 2

system: EW-11; test: cells; type: functional, cell-based, Homo sapiens; conditions: Homo sapiens, EW-11;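 also: growth inhibition of human EW-11 cells, measured with a cell viability assay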
Description: SANGER: Inhibition of human EW-11 cell growth in a cell viability assay.

Compound | IC50 [µM]
COc1cc(N2CCC(N3CCN(C)CC3)CC2)ccc1Nc1ncc(Cl)c(Nc2ccccc2S(=O)(=O)C(C)C)n1 [TAE-684] | > 2

system: EW-16; test: cells; type: functional, cell-based, Homo sapiens; conditions: Homo sapiens, EW-16;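 also: growth inhibition of human EW-16 cells, read out as cell viability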
Description: SANGER: Inhibition of human EW-16 cell growth in a cell viability assay.

Compound | IC50 [µM]
COc1cc(N2CCC(N3CCN(C)CC3)CC2)ccc1Nc1ncc(Cl)c(Nc2ccccc2S(=O)(=O)C(C)C)n1 [TAE-684] | 0.106

system: GB-1; test: cells; type: functional, cell-based, Homo sapiens; conditions: Homo sapiens, GB-1;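 also: growth of GB-1 cells judged by a viability assay, IC50 marks the concentration inhibiting growth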
Description: SANGER: Inhibition of human GB-1 cell growth in a cell viability assay.

Compound | IC50 [µM]
COc1cc(N2CCC(N3CCN(C)CC3)CC2)ccc1Nc1ncc(Cl)c(Nc2ccccc2S(=O)(=O)C(C)C)n1 [TAE-684] | 0.389

system: GI-1; test: cells; type: functional, cell-based, Homo sapiens; conditions: Homo sapiens, GI-1;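 also: growth inhibition of human GI-1 cells, measured with a cell viability readout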
Description: SANGER: Inhibition of human GI-1 cell growth in a cell viability assay.

Compound | IC50 [µM]
COc1cc(N2CCC(N3CCN(C)CC3)CC2)ccc1Nc1ncc(Cl)c(Nc2ccccc2S(=O)(=O)C(C)C)n1 [TAE-684] | 1.1

system: GI-ME-N; test: cells; type: functional, cell-based, Homo sapiens; conditions: Homo sapiens, GI-ME-N;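 also: growth inhibition of human GI-ME-N cells, read out with a cell viability assay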
Description: SANGER: Inhibition of human GI-ME-N cell growth in a cell viability assay.

Compound | IC50 [µM]
COc1cc(N2CCC(N3CCN(C)CC3)CC2)ccc1Nc1ncc(Cl)c(Nc2ccccc2S(=O)(=O)C(C)C)n1 [TAE-684] | 1.25

system: GOTO; test: cells; type: functional, cell-based, Homo sapiens; conditions: Homo sapiens, GOTO;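 also: growth inhibition of GOTO cells, read out by a cell viability assay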
Description: SANGER: Inhibition of human GOTO cell growth in a cell viability assay.

Compound | IC50 [µM]
COc1cc(N2CCC(N3CCN(C)CC3)CC2)ccc1Nc1ncc(Cl)c(Nc2ccccc2S(=O)(=O)C(C)C)n1 [TAE-684] | > 2

system: GR-ST; test: cells; type: functional, cell-based, Homo sapiens; conditions: Homo sapiens, GR-ST
Description: SANGER: Inhibition of human GR-ST cell growth in a cell viability assay.

Compound | IC50 [µM]
COc1cc(N2CCC(N3CCN(C)CC3)CC2)ccc1Nc1ncc(Cl)c(Nc2ccccc2S(=O)(=O)C(C)C)n1 [TAE-684] | 1.39

system: GT3TKB; test: cells; type: functional, cell-based, Homo sapiens; conditions: Homo sapiens, GT3TKB;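 also: growth inhibition of the cell line, read out with a cell viability assay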
Description: SANGER: Inhibition of human GT3TKB cell growth in a cell viability assay.

Compound | IC50 [µM]
COc1cc(N2CCC(N3CCN(C)CC3)CC2)ccc1Nc1ncc(Cl)c(Nc2ccccc2S(=O)(=O)C(C)C)n1 [TAE-684] | > 2

system: HL-60; test: cells; type: functional, cell-based, Homo sapiens; conditions: Homo sapiens, HL-60;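 also: growth inhibition of human HL-60 cells, read out with a cell viability assay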
Description: SANGER: Inhibition of human HL-60 cell growth in a cell viability assay.

Compound | IC50 [µM]
COc1cc(N2CCC(N3CCN(C)CC3)CC2)ccc1Nc1ncc(Cl)c(Nc2ccccc2S(=O)(=O)C(C)C)n1 [TAE-684] | 0.481

system: HOP-62; test: cells; type: functional, cell-based, Homo sapiens; conditions: Homo sapiens, HOP-62;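 also: cell growth inhibition determined with a viability assay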
Description: SANGER: Inhibition of human HOP-62 cell growth in a cell viability assay.

Compound | IC50 [µM]
COc1cc(N2CCC(N3CCN(C)CC3)CC2)ccc1Nc1ncc(Cl)c(Nc2ccccc2S(=O)(=O)C(C)C)n1 [TAE-684] | 0.65

system: KARPAS-45; test: cells; type: functional, cell-based, Homo sapiens; conditions: Homo sapiens, KARPAS-45;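 also: inhibition of cell line growth, read out through a viability assay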
Description: SANGER: Inhibition of human KARPAS-45 cell growth in a cell viability assay.

Compound | IC50 [µM]
COc1cc(N2CCC(N3CCN(C)CC3)CC2)ccc1Nc1ncc(Cl)c(Nc2ccccc2S(=O)(=O)C(C)C)n1 [TAE-684] | 0.843

system: KE-37; test: cells; type: functional, cell-based, Homo sapiens; conditions: Homo sapiens, KE-37;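 also: growth inhibition of KE-37 cells, read out with a cell viability assay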
Description: SANGER: Inhibition of human KE-37 cell growth in a cell viability assay.

Compound | IC50 [µM]
COc1cc(N2CCC(N3CCN(C)CC3)CC2)ccc1Nc1ncc(Cl)c(Nc2ccccc2S(=O)(=O)C(C)C)n1 [TAE-684] | > 2

system: KGN; test: cells; type: functional, cell-based, Homo sapiens; conditions: Homo sapiens, KGN;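 also: growth inhibition of KGN cells, read out with a cell viability assay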
Description: SANGER: Inhibition of human KGN cell growth in a cell viability assay.

Compound | IC50 [µM]
COc1cc(N2CCC(N3CCN(C)CC3)CC2)ccc1Nc1ncc(Cl)c(Nc2ccccc2S(=O)(=O)C(C)C)n1 [TAE-684] | 0.662

system: KLE; test: cells; type: functional, cell-based; conditions: Homo sapiens;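 also: growth inhibition of human KLE cells, read out with a cell viability assay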
Description: SANGER: Inhibition of human KLE cell growth in a cell viability assay.

Compound | IC50 [µM]
COc1cc(N2CCC(N3CCN(C)CC3)CC2)ccc1Nc1ncc(Cl)c(Nc2ccccc2S(=O)(=O)C(C)C)n1 [TAE-684] | > 2

system: KS-1; test: cells; type: functional, cell-based; conditions: Homo sapiens;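 also: growth inhibition of KS-1 cells, read out with a cell viability assay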
Description: SANGER: Inhibition of human KS-1 cell growth in a cell viability assay.

Compound | IC50 [µM]
COc1cc(N2CCC(N3CCN(C)CC3)CC2)ccc1Nc1ncc(Cl)c(Nc2ccccc2S(=O)(=O)C(C)C)n1 [TAE-684] | 0.193

system: LAN-6; test: cells; type: functional, cell-based, Homo sapiens; conditions: Homo sapiens, LAN-6;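 also: growth inhibition of LAN-6 cells, determined with a cell viability assay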
Description: SANGER: Inhibition of human LAN-6 cell growth in a cell viability assay.

Compound | IC50 [µM]
COc1cc(N2CCC(N3CCN(C)CC3)CC2)ccc1Nc1ncc(Cl)c(Nc2ccccc2S(=O)(=O)C(C)C)n1 [TAE-684] | 0.174

system: LB771-HNC; test: cells; type: functional, cell-based; conditions: Homo sapiens;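 also: growth inhibition of LB771-HNC human cells, read out with a cell viability assay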
Description: SANGER: Inhibition of human LB771-HNC cell growth in a cell viability assay.

Compound | IC50 [µM]
COc1cc(N2CCC(N3CCN(C)CC3)CC2)ccc1Nc1ncc(Cl)c(Nc2ccccc2S(=O)(=O)C(C)C)n1 [TAE-684] | 0.898

system: LS-1034; test: cells; type: functional, cell-based, Homo sapiens; conditions: Homo sapiens, LS-1034
Description: SANGER: Inhibition of human LS-1034 cell growth in a cell viability assay.

Compound | IC50 [µM]
COc1cc(N2CCC(N3CCN(C)CC3)CC2)ccc1Nc1ncc(Cl)c(Nc2ccccc2S(=O)(=O)C(C)C)n1 [TAE-684] | 0.636

system: Lu-65; test: cells; type: functional, cell-based, Homo sapiens; conditions: Homo sapiens, Lu-65;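 also: growth inhibition of Lu-65 cancer cells, read out by a cell viability assay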
Description: SANGER: Inhibition of human LU-65 cell growth in a cell viability assay.

Compound | IC50 [µM]
COc1cc(N2CCC(N3CCN(C)CC3)CC2)ccc1Nc1ncc(Cl)c(Nc2ccccc2S(=O)(=O)C(C)C)n1 [TAE-684] | > 2

system: MC116; test: cells; type: functional, cell-based, Homo sapiens; conditions: Homo sapiens, MC116;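 also: growth inhibition of MC116 cells, read out with a cell viability assay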
Description: SANGER: Inhibition of human MC116 cell growth in a cell viability assay.

Compound | IC50 [µM]
COc1cc(N2CCC(N3CCN(C)CC3)CC2)ccc1Nc1ncc(Cl)c(Nc2ccccc2S(=O)(=O)C(C)C)n1 [TAE-684] | > 2

system: MMAC-SF; test: cells; type: functional, cell-based; conditions: Homo sapiens;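 also: growth inhibition of human MMAC-SF cells, read out with a cell viability assay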
Description: SANGER: Inhibition of human MMAC-SF cell growth in a cell viability assay.

Compound | IC50 [µM]
COc1cc(N2CCC(N3CCN(C)CC3)CC2)ccc1Nc1ncc(Cl)c(Nc2ccccc2S(=O)(=O)C(C)C)n1 [TAE-684] | > 2

system: MOLT-16; test: cells; type: functional, cell-based, Homo sapiens; conditions: Homo sapiens, MOLT-16;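 also: growth inhibition of human MOLT-16 cells, read out with a cell viability assay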
Description: SANGER: Inhibition of human MOLT-16 cell growth in a cell viability assay.

Compound | IC50 [µM]
COc1cc(N2CCC(N3CCN(C)CC3)CC2)ccc1Nc1ncc(Cl)c(Nc2ccccc2S(=O)(=O)C(C)C)n1 [TAE-684] | 0.876
